Measurements taken from patent US20220242879A1, “FUSED HETEROCYCLE DERIVATIVES” (Janssen Sciences Ireland Unlimited Company, priority 2019, published 2022).

Columns and labels:
HBV = assay: Anti-HBV activity, HepG2.117 cell line, intracellular HBV DNA by real-time PCR; assay type: cell-based, Hepatitis B virus; details: Hepatitis B virus, 72 h; mean value; HepG2.117 cells, 3 days of treatment, intracellular HBV DNA; read-out: HBV-AVE-HepG2.117 EC50
Procedure: The anti HBV activity was measured using the HepG2.117 cell line, a stable, inducibly HBV producing cell line, which replicates HBV in the absence of doxicycline (Tet-off system). The HepG2 cell line is available from ATCC® under number HB-8065. Transfection of the HepG2 cell line can be as described in Sun and Nassal 2006 Journal of Hepatology 45 (2006) 636-645 “Stable HepG2- and Huh7-based human hepatoma cell lines for efficient regulated expression of infectious hepatitis B virus”.
For the antiviral assay, HBV replication was induced, followed by a treatment with serially diluted compound in 96-well plates. After 3 days of treatment, the antiviral activity was determined by, quantification of intracellular HBV DNA using real-time PCR and an HBV specific primer set and probe.

[1] = Cytotoxicity, ATPlite Luminescence Assay; assay type: cell-based, human; details: human, HepG2.117 cells; mean value; cells incubated for 3 days, viability by ATPlite; read-out: TOX-HepC2.117 CC50
Procedure: Cytotoxicity of the compounds was tested using HepG2 or HepG2.117 cells, incubated for 3 days in the presence of compounds. The viability of the cells was assessed using the PERKIN ELMER ATPlite Luminescence Assay System.”

SMILES | EC50 (HBV) | CC50 at 3 days [1]
CNC(=O)[C@@H]1Cc2conc2-c2c3c(nn2C1)CCN(C(=O)c1ccc(Cl)c(Cl)c1)C3 (single isomer, unassigned) [Compound 30, (5′R)-11-(3,4-Dichlorobenzoyl)-N-methyl-5,6,9,10,11,12-hexahydro-4H-[1,2]oxazolo[3,4-c]-pyrido[4′,3′:3,4]pyrazolo[1,5-a]azepine-5-carboxamide] | 181 nM | > 50000 nM
CNC(=O)[C@H]1Cc2conc2-c2c3c(nn2C1)CCN(C(=O)c1ccc(Cl)c(Cl)c1)C3 (single isomer, unassigned) [Compound 31, (5*S)-11-(3,4-Dichlorobenzoyl)-N-methyl-5,6,9,10,11,12-hexahydro-4H-[1,2]oxazolo[3,4-c]pyrido[4′,3′:3,4]pyrazolo[1,5-a]azepine-5-carboxamide] | 47 nM | > 50000 nM
CNC(=O)[C@H]1Cc2conc2-c2c3c(nn2C1)C[C@@H](C)N(C(=O)c1ccc(Cl)c(Cl)c1)C3 (single isomer, unassigned) [Compound 48] | 19 nM | > 50000 nM
CNC(=O)[C@@H]1Cc2conc2-c2c3c(nn2C1)CCN(C(=O)c1ccc(Cl)c(Cl)c1)[C@@H]3C (single isomer, unassigned) [Compound 49] | 4640 nM | > 50000 nM
CNC(=O)[C@H]1Cc2conc2-c2c3c(nn2C1)CCN(C(=O)c1ccc(Cl)c(Cl)c1)[C@@H]3C (single isomer, unassigned) [Compound 50] | 8430 nM | > 50000 nM
O=C(c1ccc(Cl)c(Cl)c1)N1CCc2nn3c(c2C1)-c1nocc1CC3 [Compound 1, (3,4-Dichlorophenyl)(4,5,8,9-tetrahydro[1,2]oxazolo[3,4-c]pyrazolo[1,5-a:4,3-c′]dipyridin-10(11H)-yl)methanone] | 1130 nM | > 50000 nM
Cc1onc2c1CCn1nc3c(c1-2)CN(C(=O)c1ccc(Cl)c(Cl)c1)CC3 [Compound 2] | 921 nM | 41900 nM
CCc1onc2c1CCn1nc3c(c1-2)CN(C(=O)c1ccc(Cl)c(Cl)c1)CC3 [Compound 3, (3,4-dichlorophenyl)(3-ethyl-4,5,8,9-tetrahydro[1,2]oxazolo[3,4-c]pyrazolo[1,5-a:4,3-c′]dipyridin-10(11H)-yl)methanone] | 1440 nM | 47000 nM
O=C(c1ccc(Cl)c(Cl)c1)N1CCc2nn3c(c2C1)-c1noc(-c2ccccc2)c1CC3 [Compound 4, (3,4-Dichlorophenyl)(3-phenyl-4,5,8,9-tetrahydro[1,2]oxazolo[3,4-c]pyrazolo-[1,5-a:4,3-c′]dipyridin-10(11H)-yl)methanone] | > 10000 nM | > 10000 nM
C[C@@H]1Cc2nn3c(c2CN1C(=O)c1ccc(Cl)c(Cl)c1)-c1nocc1CC3 [Compound 5, (3,4-Dichlorophenyl)[(9R)-9-methyl-4,5,8,9-tetrahydro[1,2]oxazolo[3,4-c]-pyrazolo[1,5-a:4,3-c′]dipyridin-10(11H)-yl]methanone] | 279 nM | > 50000 nM
O=C(c1ccc(Cl)c(Cl)c1)N1CCc2nn3c(c2C1)-c1n[nH]cc1CC3 [Compound 6, (3,4-Dichlorophenyl)(2,4,5,8,9,11-hexahydro-10H-pyrazolo[3,4-c]pyrazolo[1,5-a:4,3-c′]-dipyridin-10-yl)methanone] | 208 nM | > 50000 nM
Cc1[nH]nc2c1CCn1nc3c(c1-2)CN(C(=O)c1ccc(Cl)c(Cl)c1)CC3 [Compound 7, (3,4-Dichlorophenyl)(3-methyl-2,4,5,8,9,11-hexahydro-10H-pyrazolo[3,4-c]pyrazolo-[1,5-a:4,3-c′]dipyridin-10-yl)methanone] | 1290 nM | > 50000 nM
Cn1cc2c(n1)-c1c3c(nn1CC2)CCN(C(=O)c1ccc(Cl)c(Cl)c1)C3 [Compound 8, (3,4-Dichlorophenyl)(2-methyl-2,4,5,8,9,11-hexahydro-10H-pyrazolo[3,4-c]pyrazolo-[1,5-a:4,3-c]dipyridin-10-yl)methanone] | 2550 nM | > 50000 nM
Cn1ncc2c1-c1c3c(nn1CC2)CCN(C(=O)c1ccc(Cl)c(Cl)c1)C3 [Compound 9, (3,4-Dichlorophenyl)(1-methyl-1,4,5,8,9,11-hexahydro-10H-pyrazolo[3,4-c]pyrazolo-[1,5-a:4,3-c′]dipyridin-10-yl)methanone] | > 50000 nM | > 50000 nM
Cc1nc2c(s1)CCn1nc3c(c1-2)CN(C(=O)c1ccc(Cl)c(Cl)c1)CC3 [Compound 10, (3,4-Dichlorophenyl)(2-methyl-4,8,9,11-tetrahydro[1,3]thiazolo[4,5-c]pyrazolo[1,5-a:4,3-c′]-dipyridin-10(5H)-yl)methanone] | 8060 nM | > 10000 nM
O=C(c1ccc(Cl)c(Cl)c1)N1CCc2nn3c(c2C1)-c1nocc1CCC3 [Compound 11] | 300 nM | > 46200 nM
Cc1onc2c1CCCn1nc3c(c1-2)CN(C(=O)c1ccc(Cl)c(Cl)c1)CC3 [Compound 12, (3,4-Dichlorophenyl)(3-methyl-5,6,9,10-tetrahydro-4H-[1,2]oxazolo[3,4-c]pyrido[4′,3′:3,4]-pyrazolo[1,5-a]azepin-11(12H)-yl)methanone] | 835 nM | 31100 nM
CCc1onc2c1CCCn1nc3c(c1-2)CN(C(=O)c1ccc(Cl)c(Cl)c1)CC3 [Compound 13, (3,4-Dichlorophenyl)(3-ethyl-5,6,9,10-tetrahydro-4H-[1,2]oxazolo[3,4-c]-pyrido[4′,3′:3,4]pyrazolo[1,5-a]azepin-11(12H)-yl)methanone] | 2940 nM | 26600 nM
C[C@@H]1Cc2nn3c(c2CN1C(=O)c1ccc(Cl)c(Cl)c1)-c1nocc1CCC3 [Compound 14, (3,4-dichlorophenyl)[(10R)-10-methyl-5,6,9,10-tetrahydro-4H-[1,2]oxazolo-[3,4-c]pyrido[4′,3′:3,4]pyrazolo[1,5-a]azepin-11(12H)-yl]methanone] | 213 nM | 39200 nM
Cc1onc2c1CCCn1nc3c(c1-2)CN(C(=O)c1ccc(Cl)c(Cl)c1)[C@H](C)C3 [Compound 15, (3,4-dichlorophenyl)[(10R)-3,10-dimethyl-5,6,9,10-tetrahydro-4H-[1,2]oxazolo-[3,4-c]pyrido[4′,3′:3,4]pyrazolo[1,5-a]azepin-11(12H)-yl]methanone] | 934 nM | > 43500 nM
O=C(c1ccc(Cl)c(Cl)c1)N1CCc2nn3c(c2C1)-c1noc(C(F)(F)F)c1CCC3 [Compound 16, (3,4-Dichlorophenyl)[3-(trifluoromethyl)-5,6,9,10-tetrahydro-4H-[1,2]oxazolo[3,4-c]pyrido[4′,3′:3,4]pyrazolo[1,5-a]azepin-11(12H)-yl]methanone] | 1620 nM | > 50000 nM
C=C1Cc2conc2-c2c3c(nn2C1)CCN(C(=O)c1ccc(Cl)c(Cl)c1)C3 [Compound 17, (3,4-Dichlorophenyl)(5-methylidene-5,6,9,10-tetrahydro-4H-[1.2]oxazolo[3,4-c]pyrido-[4′,3′:3,4]pyrazolo[1,5-a]azepin-11(12H)-yl)methanone] | 248 nM | 24700 nM
O=C(c1ccc(Cl)c(Cl)c1)N1CCc2nn3c(c2C1)-c1nocc1CC(O)(CO)C3 (centres unmarked) [Compound 18, (3,4-Dichlorophenyl)[5-hydroxy-5-(hydroxymethyl)-5,6,9,10-tetrahydro-4H-[1,2]oxazolo-[3,4-c]pyrido[4′,3′:3,4]pyrazolo[1,5-a]azepin-11(12H)-yl]methanone] | 1050 nM | > 50000 nM
O=C(c1ccc(Cl)c(Cl)c1)N1CCc2nn3c(c2C1)-c1nocc1CC(O)C3 (centres unmarked) [Compound 19, (3,4-Dichlorophenyl)(5-hydroxy-5,6,9,10-tetrahydro-4H-isoxazolo[3,4-c]pyrido[4′,3′:3,4]pyrazolo[1,5-a]azepin-11(12H)-yl)methanone] | 263 nM | > 50000 nM
COC1Cc2conc2-c2c3c(nn2C1)CCN(C(=O)c1ccc(Cl)c(Cl)c1)C3 (centres unmarked) [Compound 20, (3,4-Dichlorophenyl)(5-methoxy-5,6,9,10-tetrahydro-4H-isoxazolo[3,4-c]pyrido[4′,3′:3,4]-pyrazolo[1,5-a]azepin-11(12H)-yl)methanone] | 300 nM | > 50000 nM
CNC(=O)C1(O)Cc2conc2-c2c3c(nn2C1)CCN(C(=O)c1ccc(Cl)c(Cl)c1)C3 (centres unmarked) [Compound 22, 11-(3,4-Dichlorobenzoyl)-S-hydroxy-N-methyl-5,6,9,10,11,12-hexahydro-4H-[1,2]oxazolo-[3,4-c]pyrido[4′,3′:3,4]pyrazolo[1,5-a]azepine-5-carboxamide] | 130 nM | > 50000 nM
C=C1Cc2c(noc2N)-c2c3c(nn2C1)CCN(C(=O)c1ccc(Cl)c(Cl)c1)C3 [Compound 23, (3-Amino-5-methylidene-5,6,9,10-tetrahydro-4H-[1,2]oxazolo[3,4-c]pyrido[4′,3′:3,4]pyrazolo-[1,5-a]azepin-11(12H)-yl)(3,4-dichlorophenyl)methanone] | 172 nM | 21200 nM
Nc1onc2c1CC(O)(CO)Cn1nc3c(c1-2)CN(C(=O)c1ccc(Cl)c(Cl)c1)CC3 (centres unmarked) [Compound 24, [3-Amino-5-hydroxy-5-(hydroxymethyl)-5,6,9,10-tetrahydro-4H-[1,2]oxazolo[3,4-c]pyrido-[4′,3′:3,4]pyrazolo[1,5-a]azepin-11(12H)-yl](3,4-dichlorophenyl)methanone] | 1590 nM | > 50000 nM
